{"source": "patent US20240294488A1", "about": "“ISOTOPOLOGES, SALTS, CRYSTALLINE FORMS, STEREOISOMERS, OF METHYLONE AND ETHYLONE AND METHODS OF USE THEREOF” (Terran Biosciences Inc., priority 2021, published 2024)", "key": {"[1]": {"assay": "Dynamic vapor sorption (DVS)", "type": "physicochemical", "description": "The sample for moisture analysis was allowed to dry at 25° C. for up to 4 hours under a stream of dry nitrogen. The relative humidity is then increased stepwise from 10 to 90% relative humidity (adsorption scan) allowing the sample to equilibrate for a maximum of four hours before weighing and moving on to the next step. The desorption scan is measured from 85 to 0% relative humidity with the same equilibration time. The sample is then dried under a stream of dry nitrogen at 80° C. for 2 hours or until no weight loss is observed.\nDVS analysis was carried out using a TA Instruments Q5000 Dynamic Vapor Sorption analyzer. The instrument was calibrated with standard weights and a sodium bromide standard for humidity. Approximately 10-25 mg of sample was loaded into a metal-coated quartz pan for analysis. The sample was analyzed at 25° C. with a maximum equilibration time of one hour in 10% relative humidity (RH) steps from 5 to 95% RH (adsorption cycle) and from 95 to 5% RH (desorption cycle). The movement from one step to the next occurred either after satisfying the equilibrium criterion of 0.01% weight change or, if the equilibrium criterion was not met, after one hour. The percent weight change values were calculated."}, "[2]": {"assay": "Solubility screen of methylone hydrochloride in solvents", "type": "physicochemical", "conditions": "thermodynamic from solid, visual", "description": "The experiments were carried out by adding the test solvent in aliquots to weighed portions of solid. Whether dissolution had occurred was judged by visual inspection after addition of each solvent aliquot. Solubility numbers recorded in Table 4 were calculated by dividing the weight of the sample by the total amount of solvent used to dissolve the sample. The actual solubilities may be greater than the numbers calculated because of the use of solvent aliquots that were too large or because of slow dissolution rates. All solubility measurements were carried out at room temperature unless noted otherwise."}}, "note": "Where a name gives a salt, the structure may show the parent alone.", "data": [{"smiles": "CNC(C)C(=O)c1ccc2c(c1)OCO2", "note": "(racemic) [(rac)-Methylone Hydrochloride, 3,4-methylenedioxy-N-methylcathinone hydrochloride]", "values": [{"measurement": "relative humidity above which water uptake occurs", "setting": "[1]; DVS, FIG. 26", "value": "above 75 % RH"}, {"measurement": "physical stability after moisture sorption-desorption analysis", "setting": "[1]; between 5% RH and 95% RH", "value": "physically stable"}, {"measurement": "water gain", "setting": "[1]; between 5% RH and 95% RH", "value": 0.33, "unit": "%"}, {"measurement": "water loss", "setting": "[1]; between 95% RH and 5% RH", "value": 0.15, "unit": "%"}, {"measurement": "appearance after humidity exposure", "setting": "[1]; exposed to 75% RH for 2 hours", "value": "became tacky and stuck to the vial"}, {"measurement": "solubility", "setting": "[2]; acetonitrile, organic solvent or mixture, ACN, room temperature", "value": "< 1000", "unit": "µg/mL"}, {"measurement": "solubility", "setting": "[2]; chloroform, organic solvent or mixture, CHCl3, room temperature", "value": "< 1000", "unit": "µg/mL"}, {"measurement": "solubility", "setting": "[2]; ethanol, organic solvent or mixture, EtOH, room temperature", "value": 8000, "unit": "µg/mL"}, {"measurement": "solubility", "setting": "[2]; ethyl acetate (wet), organic solvent or mixture, EtOAc (wet), room temperature", "value": 9000, "unit": "µg/mL"}, {"measurement": "solubility", "setting": "[2]; methanol, organic solvent or mixture, MeOH, room temperature", "value": 48000, "unit": "µg/mL"}, {"measurement": "solubility", "setting": "[2]; methanol/chloroform 50/50, organic solvent or mixture, MeOH/CHCl3 50/50, room temperature", "value": 45000, "unit": "µg/mL"}, {"measurement": "solubility", "setting": "[2]; organic solvent or mixture, Acetone, room temperature", "value": "< 1000", "unit": "µg/mL"}, {"measurement": "solubility", "setting": "[2]; organic solvent or mixture, DMF, room temperature", "value": 5000, "unit": "µg/mL"}, {"measurement": "solubility", "setting": "[2]; organic solvent or mixture, THF, room temperature", "value": "< 1000", "unit": "µg/mL"}, {"measurement": "solubility", "setting": "[2]; water, H2O, room temperature", "value": 47000, "unit": "µg/mL"}]}]}
